In PubChem BioAssay AID2060621 (Molecular Pharmacology Branch, DTP, NCI, 2025):

Test system: 324938-238-R-J1-PDC complex spheroids viability
Assay: Anticancer human tumor 324938-238-R-J1-PDC patient-derived bladder carcinoma cell line growth inhibition [CLK]
Conditions: for IC50: curve of first compound; for viability, T/C: stronger effect = lower value
Text: A high-throughput screen of multi-cell type tumor spheroids was designed to identify active combinations of […] and targeted small molecules. Complex spheroids include a stromal component modeled by human endothelial cells (HUVEC) and fibroblasts modeled by human mesenchymal stem cells (MSCs). The concentration ranges selected for each drug and investigational agent were based upon clinically achievable concentrations if the clinical Cmax of the agent was known.
Compounds. The drugs and investigational agents: cirtuvivint (SM08502; NSC835563), CC-671 (NSC850746), vemurafenib (NSC761431), tapotoclax (NSC804041), sotorasib (NSC818433), adagrasib (NSC831453), MRTX-1133 (NSC836407), BAY2416964 (NSC825713), copanlisib (NSC816437), inavolisib (NSC800729), abemaciclib (NSC768073), osimertinib (NSC779217), entinostat (NSC756642), eltanexor (KPT-8602, NSC794443), venetoclax (NSC766270), ceralasertib (NSC777638), bortezomib (NSC756655), olaparib (NSC753686), talazoparib (NSC767125), alisertib (NSC759677), peposertib (NSC802822), gemcitabine (NSC613327), 5-fluorouracil (NSC19893), SN-38 (NSC673596), oxaliplatin (NSC266046), paclitaxel (NSC125973), and doxorubicin (NSC123127), were obtained from the National Cancer Institute (NCI) Developmental Therapeutics Program Chemical Repository. The FDA-approved anticancer drug set is available from the Developmental Therapeutics Program at https://dtp.cancer.gov/organization/dscb/obtaining/available plates.htm. […] The stock solutions were prepared in dimethyl sulfoxide (DMSO, Sigma-Aldrich, St. Louis, MO, cat. D2650), except for the platinum complexes which were prepared in saline (Quality Biological, Gaithersburg, MD, cat. 114-055-101), at 800-fold the tested concentration and stored at -70 degrees C prior to their use. All drugs and investigational agents were tested over a range starting from a high concentration at or near the clinical Cmax and decreasing in half-log increments. If the clinical Cmax for an agent had not been determined, the highest concentration tested was 10 microM.
Cell Culture. All cells were maintained in an incubator at 37 degrees C and 5% CO2 with 95% humidity. The PDC lines were cultured according to standard operating procedures established by the NCI PDMR. Briefly, all PDCs were thawed and cultured in Matrigel-coated flasks prepared with a working solution of 1X Ham's F-12 nutrient mix, without supplementation (Invitrogen, Waltham, MA, cat. 11765054), 100 U/mL penicillin-streptomycin (Invitrogen, cat. 15140122), and 2.5% Matrigel (Corning Inc., Corning, NY, cat. 354248) for the first three passages. The 947758-054-R-J2-PDC line was cultured in 6B/Colon 1A media, which includes advanced DMEM/F-12 (Thermo Fisher Scientific, cat. 12634028), 10 mM HEPES (Thermo Fisher Scientific, cat. 15630080), 1X GlutaMAX supplement (Thermo Fisher Scientific, cat. 35050061), 0.1 mg/mL primocin (InvivoGen, cat. ant-pm-2), 10% defined fetal bovine serum, heat inactivated (HyClone Laboratories Inc., cat. SH30070.03HI), 1.25 mM N-Acetyl-L-cysteine (Sigma-Aldrich, cat. A9165), 10 mM nicotinamide (Sigma-Aldrich, cat. N0636), 1X B-27 supplement (Thermo Fisher Scientific, cat. 17504044), 1X N-2 supplement (Thermo Fisher Scientific, cat. 17502048), and 10 microM Y-27632 dihydrochloride (Tocris Bioscience, cat. 1254). The 876862-298-R-J1-PDC was cultured in 6E media, which includes all 6B/Colon 1A media components plus 50% L-WRN conditioned media (ATCC, cat. CRL-3276), 50 ng/mL recombinant human EGF recombinant protein (hEGF; Thermo Fisher Scientific, cat. PHG0311), 10 ng/mL recombinant human fibroblast growth factor 10 (hGFG-10; PeproTech, cat. 100-26), 1 ng/mL recombinant human fibroblast growth factor 2 (hFGF-2; PeproTech, cat. 100-18B), and 1 µM prostaglandin E2 (PGE2; Tocris, cat. 2296). The 227483-062-R1-J1-PDC line was cultured in Panc media, containing all 6E components except hFGF-2, with the addition of 500 nM SB-431542 (Selleckchem, cat. S1067) and 10 nM gastrin (Tocris, cat. 3006). […]
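Also: viability read after seven days of drug exposure.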
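For viability, T/C in this document: 100% = DMSO vehicle control wells.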

Cn1ncnc1[C@H]1c2n[nH]c(=O)c3cc(F)cc(c23)N[C@@H]1c1ccc(F)cc1 + CNC(=O)c1ccc(Nc2nc(OC3CCCC3)c3c(-c4ccc5nc(C)oc5c4)c[nH]c3n2)c(OC)c1
IC50 (second compound 0.0316 µM): 11.9 nM | IC50 (second compound 0.1 µM): < 0.316 nM | IC50 (second compound 0.316 µM): < 0.316 nM | IC50 (second compound 1 µM): < 0.316 nM | IC50 (second compound 3.16 µM): < 0.316 nM | IC50 (second compound 10 µM): < 0.316 nM | viability, T/C (second compound 0.0316 µM, first compound 0.000316 µM): 83% | viability, T/C (second compound 0.0316 µM, first compound 0.001 µM): 89.5% | viability, T/C (second compound 0.0316 µM, first compound 0.00316 µM): 66.3% | viability, T/C (second compound 0.0316 µM, first compound 0.01 µM): 54.8% | viability, T/C (second compound 0.0316 µM, first compound 0.0316 µM): 35.1% | viability, T/C (second compound 0.0316 µM, first compound 0.1 µM): 26.6% | viability, T/C (second compound 0.1 µM, first compound 0.000316 µM): 26.2% | viability, T/C (second compound 0.1 µM, first compound 0.001 µM): 26.5% | viability, T/C (second compound 0.1 µM, first compound 0.00316 µM): 21.8% | viability, T/C (second compound 0.1 µM, first compound 0.01 µM): 21% | viability, T/C (second compound 0.1 µM, first compound 0.0316 µM): 20.4% | viability, T/C (second compound 0.1 µM, first compound 0.1 µM): 20.7% | viability, T/C (second compound 0.316 µM, first compound 0.000316 µM): 17.8% | viability, T/C (second compound 0.316 µM, first compound 0.001 µM): 20.8% | viability, T/C (second compound 0.316 µM, first compound 0.00316 µM): 16.7% | viability, T/C (second compound 0.316 µM, first compound 0.01 µM): 18.7% | viability, T/C (second compound 0.316 µM, first compound 0.0316 µM): 19.8% | viability, T/C (second compound 0.316 µM, first compound 0.1 µM): 17.4% | viability, T/C (second compound 1 µM, first compound 0.000316 µM): 16.5% | viability, T/C (second compound 1 µM, first compound 0.001 µM): 15.4% | viability, T/C (second compound 1 µM, first compound 0.00316 µM): 14.7% | viability, T/C (second compound 1 µM, first compound 0.01 µM): 13.9% | viability, T/C (second compound 1 µM, first compound 0.0316 µM): 14.8% | viability, T/C (second compound 1 µM, first compound 0.1 µM): 15.9% | viability, T/C (second compound 3.16 µM, first compound 0.000316 µM): 17.5% | viability, T/C (second compound 3.16 µM, first compound 0.001 µM): 19.6% | viability, T/C (second compound 3.16 µM, first compound 0.00316 µM): 15.4% | viability, T/C (second compound 3.16 µM, first compound 0.01 µM): 17% | viability, T/C (second compound 3.16 µM, first compound 0.0316 µM): 18% | viability, T/C (second compound 3.16 µM, first compound 0.1 µM): 15.4% | viability, T/C (second compound 10 µM, first compound 0.000316 µM): 18.2% | viability, T/C (second compound 10 µM, first compound 0.001 µM): 18.8% | viability, T/C (second compound 10 µM, first compound 0.00316 µM): 18.9% | viability, T/C (second compound 10 µM, first compound 0.01 µM): 17.8% | viability, T/C (second compound 10 µM, first compound 0.0316 µM): 18.7% | viability, T/C (second compound 10 µM, first compound 0.1 µM): 17.3%
